Common to all, as to format: biochemical
One experiment concerns the target T1, JAK3 (Homo sapiens, UniProt P52333).
T1 sequence (P52333 1-1124): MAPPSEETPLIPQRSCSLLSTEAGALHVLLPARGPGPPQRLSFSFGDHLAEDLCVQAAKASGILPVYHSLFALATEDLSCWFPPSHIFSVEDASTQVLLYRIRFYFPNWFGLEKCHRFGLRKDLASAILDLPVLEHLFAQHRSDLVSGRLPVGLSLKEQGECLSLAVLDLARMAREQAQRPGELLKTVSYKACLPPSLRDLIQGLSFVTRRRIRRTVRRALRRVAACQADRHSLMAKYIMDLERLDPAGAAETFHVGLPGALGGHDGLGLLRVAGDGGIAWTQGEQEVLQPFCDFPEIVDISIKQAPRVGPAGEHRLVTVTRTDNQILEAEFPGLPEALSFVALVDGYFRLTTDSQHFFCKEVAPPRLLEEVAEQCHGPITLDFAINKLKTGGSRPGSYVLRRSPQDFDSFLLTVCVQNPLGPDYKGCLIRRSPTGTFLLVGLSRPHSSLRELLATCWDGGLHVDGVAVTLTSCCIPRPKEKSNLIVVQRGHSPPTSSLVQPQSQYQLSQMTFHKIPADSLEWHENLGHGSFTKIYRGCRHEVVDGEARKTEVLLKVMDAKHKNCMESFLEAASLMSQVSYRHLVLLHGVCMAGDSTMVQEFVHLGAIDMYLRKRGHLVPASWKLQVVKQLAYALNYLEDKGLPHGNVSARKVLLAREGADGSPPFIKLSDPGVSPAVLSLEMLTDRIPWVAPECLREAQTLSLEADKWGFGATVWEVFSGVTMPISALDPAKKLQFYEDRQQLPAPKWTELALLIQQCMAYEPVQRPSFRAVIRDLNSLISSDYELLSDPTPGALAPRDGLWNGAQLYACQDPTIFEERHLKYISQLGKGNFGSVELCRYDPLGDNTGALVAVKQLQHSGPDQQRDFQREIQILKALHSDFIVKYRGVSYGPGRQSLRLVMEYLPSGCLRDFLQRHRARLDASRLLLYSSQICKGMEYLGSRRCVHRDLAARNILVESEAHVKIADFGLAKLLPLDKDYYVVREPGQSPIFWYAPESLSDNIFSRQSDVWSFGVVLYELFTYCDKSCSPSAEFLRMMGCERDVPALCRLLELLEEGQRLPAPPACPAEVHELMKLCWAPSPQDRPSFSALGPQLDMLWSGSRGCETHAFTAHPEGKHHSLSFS
Kind of experiment: JAK3 Assay (Caliper EZ Reader, fluoresceinated peptide). The note with it: ATP 3.5 μM; JAK3 0.5 nM; 30 minutes at room temperature; read-out: JAK3 inhibition.

Another experiment deals with JAK1 (Homo sapiens, UniProt P23458). Kind of experiment: JAK Kinase Assay (JAK1, Caliper EZ Reader, fluoresceinated peptide). The settings on record: ATP 76.5 μM; JAK1 10 nM; 120 minutes at room temperature; read-out: JAK1 inhibition.
Sequence of JAK1 (P23458 whole entry, species assumed): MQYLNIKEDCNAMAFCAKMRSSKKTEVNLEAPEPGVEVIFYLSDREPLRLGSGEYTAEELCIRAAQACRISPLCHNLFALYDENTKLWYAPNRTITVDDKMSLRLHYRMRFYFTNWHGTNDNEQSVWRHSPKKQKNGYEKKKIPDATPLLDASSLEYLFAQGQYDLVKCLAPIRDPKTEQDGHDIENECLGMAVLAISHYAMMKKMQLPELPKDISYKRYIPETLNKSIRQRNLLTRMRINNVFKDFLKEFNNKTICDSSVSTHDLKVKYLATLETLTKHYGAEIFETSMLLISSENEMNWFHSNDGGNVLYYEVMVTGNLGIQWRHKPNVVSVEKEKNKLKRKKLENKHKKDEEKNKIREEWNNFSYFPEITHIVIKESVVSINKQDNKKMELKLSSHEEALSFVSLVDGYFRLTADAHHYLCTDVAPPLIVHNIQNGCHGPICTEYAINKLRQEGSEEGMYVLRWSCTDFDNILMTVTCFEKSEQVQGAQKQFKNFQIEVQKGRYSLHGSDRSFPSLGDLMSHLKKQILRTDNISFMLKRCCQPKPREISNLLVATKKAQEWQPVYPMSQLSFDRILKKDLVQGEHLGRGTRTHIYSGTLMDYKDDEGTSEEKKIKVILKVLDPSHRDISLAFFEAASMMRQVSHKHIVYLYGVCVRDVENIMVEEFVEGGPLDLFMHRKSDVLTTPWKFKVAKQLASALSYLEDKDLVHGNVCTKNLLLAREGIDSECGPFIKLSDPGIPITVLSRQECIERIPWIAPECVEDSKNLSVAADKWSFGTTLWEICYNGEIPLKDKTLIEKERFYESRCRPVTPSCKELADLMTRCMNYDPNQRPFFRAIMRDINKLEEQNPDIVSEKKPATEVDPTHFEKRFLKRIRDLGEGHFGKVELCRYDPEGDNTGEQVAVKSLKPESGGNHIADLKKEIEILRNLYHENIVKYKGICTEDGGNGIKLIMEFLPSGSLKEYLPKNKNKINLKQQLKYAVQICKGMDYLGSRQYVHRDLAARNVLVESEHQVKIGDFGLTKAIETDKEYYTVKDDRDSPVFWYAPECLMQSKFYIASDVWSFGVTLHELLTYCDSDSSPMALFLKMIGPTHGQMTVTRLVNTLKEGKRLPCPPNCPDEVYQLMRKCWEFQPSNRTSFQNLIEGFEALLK
In another experiment the target is JAK2 (Homo sapiens, UniProt O60674). Kind of experiment: JAK2 Assay (Caliper EZ Reader, fluoresceinated peptide). The note with it: ATP 11.4 μM; JAK2 0.25 nM; 15 minutes at room temperature; read-out: JAK2 inhibition.
Sequence of JAK2 (O60674 whole entry, species assumed): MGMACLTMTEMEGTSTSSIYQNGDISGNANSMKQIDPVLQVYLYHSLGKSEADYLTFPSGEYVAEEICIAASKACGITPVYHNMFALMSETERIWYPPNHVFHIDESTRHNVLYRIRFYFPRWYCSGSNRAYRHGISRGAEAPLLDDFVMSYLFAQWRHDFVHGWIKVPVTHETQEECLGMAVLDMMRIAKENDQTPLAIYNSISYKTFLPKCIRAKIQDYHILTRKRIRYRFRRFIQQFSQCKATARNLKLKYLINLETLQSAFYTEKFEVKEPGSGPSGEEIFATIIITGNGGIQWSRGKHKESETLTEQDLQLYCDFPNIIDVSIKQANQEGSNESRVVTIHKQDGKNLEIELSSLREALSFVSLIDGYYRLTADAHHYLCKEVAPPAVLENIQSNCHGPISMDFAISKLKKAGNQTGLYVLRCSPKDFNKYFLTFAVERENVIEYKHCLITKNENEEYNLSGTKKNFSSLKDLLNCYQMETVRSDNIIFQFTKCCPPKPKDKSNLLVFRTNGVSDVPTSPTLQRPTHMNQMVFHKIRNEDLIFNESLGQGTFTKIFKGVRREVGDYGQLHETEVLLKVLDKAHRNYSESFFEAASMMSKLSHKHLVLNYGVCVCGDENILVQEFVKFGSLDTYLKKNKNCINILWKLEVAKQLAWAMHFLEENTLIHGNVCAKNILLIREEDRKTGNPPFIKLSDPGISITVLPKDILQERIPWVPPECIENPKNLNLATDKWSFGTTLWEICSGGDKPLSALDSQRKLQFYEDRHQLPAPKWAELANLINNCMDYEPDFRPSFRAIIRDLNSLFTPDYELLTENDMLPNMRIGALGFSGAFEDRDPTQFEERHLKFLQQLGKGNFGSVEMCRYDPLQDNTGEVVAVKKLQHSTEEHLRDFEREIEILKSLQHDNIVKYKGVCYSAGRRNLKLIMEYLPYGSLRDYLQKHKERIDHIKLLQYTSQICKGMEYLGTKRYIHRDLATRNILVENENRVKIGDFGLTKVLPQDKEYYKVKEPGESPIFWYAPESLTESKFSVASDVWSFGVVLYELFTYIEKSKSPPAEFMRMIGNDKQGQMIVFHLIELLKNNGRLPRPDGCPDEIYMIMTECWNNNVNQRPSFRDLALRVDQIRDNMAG

Structures are written as SMILES. pIC50: −log10 of the molar value. Where a name gives a salt, the structure may show the parent alone.

This note sets out measurements from patent US11365188B2, “JAK inhibitors” (priority 2018, dated 2022).

As to `CN(c1ncnc2[nH]ccc12)C1CCC2(CC1)CCN(C(=O)c1ccc(C#N)cc1F)CC2` [Compound 84, 3-Fluoro-4-{9-[methyl-(7H-pyrrolo[2,3-d]pyrimidin-4-yl)-amino]-3-aza-spiro[5.5]undecane-3-carbonyl}-benzonitrile], the pIC50 on JAK3 was 5.00 to 6.00; on JAK1, 6.00 to 7.00; on JAK2, 6.00 to 7.00.
For `CN(c1ncnc2[nH]ccc12)C1CCC2(CC1)CCN(C(=O)Cc1ccc(C#N)cc1)CC2` [Compound 85, 4-(2-{9-[Methyl-(7H-pyrrolo[2,3-d]pyrimidin-4-yl)-amino]-3-aza-spiro[5.5]undec-3-yl}-2-oxo-ethyl)-benzonitrile], the results for the pIC50 on JAK3, on JAK1 and at JAK2 were 6.00 to 7.00, 7.00 to 8.00 and 6.00 to 7.00, respectively.
For `CN(c1ncnc2[nH]ccc12)C1CCC2(CC1)CCN(C(=O)CCS(C)(=O)=O)CC2` [Compound 86, 3-Methanesulfonyl-1-{9-[methyl-(7H-pyrrolo[2,3-d]pyrimidin-4-yl)-amino]-3-aza-spiro[5.5]undec-3-yl}-propan-1-one], the pIC50 at JAK3 is 5.00 to 6.00; on JAK1 it was 6.00 to 7.00; on JAK2, 6.00 to 7.00.
Consider `CN(c1ncnc2[nH]ccc12)C1CCC2(CC1)CCN(C(=O)c1ccc(C#N)c(F)c1)CC2` [Compound 87, 2-Fluoro-4-{9-[methyl-(7H-pyrrolo[2,3-d]pyrimidin-4-yl)-amino]-3-aza-spiro[5.5]undecane-3-carbonyl}-benzonitrile], for which the pIC50 on JAK3, at JAK1 and on JAK2 was 6.00 to 7.00 in each case.
Take `CN(c1ncnc2[nH]ccc12)C1CCC2(CC1)CCN(C(=O)c1cnccn1)CC2` [Compound 88, {9-[Methyl-(7H-pyrrolo[2,3-d]pyrimidin-4-yl)-amino]-3-aza-spiro[5.5]undec-3-yl}-pyrazin-2-yl-methanone]: the pIC50 is 5.00 to 6.00 on JAK3, 6.00 to 7.00 at JAK1 and 6.00 to 7.00 at JAK2.
For the compound `CN(c1ncnc2[nH]ccc12)C1CCC2(CC1)CCN(C(=O)C1(C#N)CC1)CC2` [Compound 89, 1-{9-[Methyl-(7H-pyrrolo[2,3-d]pyrimidin-4-yl)-amino]-3-aza-spiro[5.5]undecane-3-carbonyl}-cyclopropanecarbonitrile], the pIC50 is 5.00 to 6.00 at JAK3, 6.00 to 7.00 on JAK1 and 6.00 to 7.00 at JAK2.
With `Cc1cncc(C(=O)N2CCC3(CCC(N(C)c4ncnc5[nH]ccc45)CC3)CC2)n1` [Compound 90, (6-Methyl-pyrazin-2-yl)-{9-[methyl-(7H-pyrrolo[2,3-d]pyrimidin-4-yl)-amino]-3-aza-spiro[5.5]undec-3-yl}-methanone], the pIC50 at JAK3 was 5.00 to 6.00; at JAK1 it was 6.00 to 7.00; at JAK2, 6.00 to 7.00.
In the case of `CN(c1ncnc2[nH]ccc12)C1CCC2(CC1)CCN(C(=O)CCC(F)(F)F)CC2` [Compound 91, 4,4,4-Trifluoro-1-{9-[methyl-(7H-pyrrolo[2,3-d]pyrimidin-4-yl)-amino]-3-aza-spiro[5.5]undec-3-yl}-butan-1-one], the pIC50 at JAK3 was 5.00 to 6.00; at JAK1 it was 6.00 to 7.00; at JAK2, 6.00 to 7.00.
On to `CN(c1ncnc2[nH]ccc12)C1CCC2(CC1)CCN(C(=O)c1csc3ccccc13)CC2` [Compound 92, Benzo[b]thiophen-3-yl-{9-[methyl-(7H-pyrrolo[2,3-d]pyrimidin-4-yl)-amino]-3-aza-spiro[5.5]undec-3-yl}-methanone], for which the pIC50 at JAK3, at JAK1 and at JAK2 was 6.00 to 7.00 each time.
In the case of `CN(c1ncnc2[nH]ccc12)C1CCC2(CC1)CCN(C(=O)Cc1c[nH]c3ccccc13)CC2` [Compound 93, 2-(1H-Indol-3-yl)-1-{9-[methyl-(7H-pyrrolo[2,3-d]pyrimidin-4-yl)-amino]-3-aza-spiro[5.5]undec-3-yl}-ethanone], the pIC50 on JAK3, on JAK1 and on JAK2 was 6.00 to 7.00 throughout.
Turning to `Cc1ccsc1C(=O)N1CCC2(CCC(N(C)c3ncnc4[nH]ccc34)CC2)CC1` [Compound 94, {9-[Methyl-(7H-pyrrolo[2,3-d]pyrimidin-4-yl)-amino]-3-aza-spiro[5.5]undec-3-yl}-(3-methyl-thiophen-2-yl)-methanone], the pIC50 on JAK3 was 5.00 to 6.00; on JAK1, 6.00 to 7.00; on JAK2, 6.00 to 7.00.
Regarding `CN(c1ncnc2[nH]ccc12)C1CCC2(CC1)CCN(C(=O)c1cc3ccccc3[nH]1)CC2` [Compound 95, (1H-Indol-2-yl)-{9-[methyl-(7H-pyrrolo[2,3-d]pyrimidin-4-yl)-amino]-3-aza-spiro[5.5]undec-3-yl}-methanone], the pIC50 at JAK3, at JAK1 and on JAK2 was 6.00 to 7.00 each time.
For `CCCS(=O)(=O)N1CCC2(CCC(N(C)c3ncnc4c3CCN4)CC2)CC1` [Compound 96, (6,7-Dihydro-5H-pyrrolo[2,3-d]pyrimidin-4-yl)-methyl-[3-(propane-1-sulfonyl)-3-aza-spiro[5.5]undec-9-yl]-amine], the pIC50 at JAK3 is 5.00 to 6.00; on JAK1 it was 6.00 to 7.00; on JAK2 it was 6.00 to 7.00.
`CNCC(=O)N1CCC2(CCC(N(C)c3ncnc4[nH]ccc34)CC2)CC1` [Compound 97, 2-Methylamino-1-{9-[methyl-(7H-pyrrolo[2,3-d]pyrimidin-4-yl)-amino]-3-aza-spiro[5.5]undec-3-yl}-ethanone HCl salt]: the pIC50 was 5.00 to 6.00 at JAK3, 6.00 to 7.00 at JAK1 and 6.00 to 7.00 at JAK2.
With `CC(C)OC(=O)N1CCC2(CCC(N(C)c3ncnc4c3CCN4)CC2)CC1` [Compound 98, 9-[(6,7-Dihydro-5H-pyrrolo[2,3-d]pyrimidin-4-yl)-methyl-amino]-3-aza-spiro[5.5]undecane-3-carboxylic acid isopropyl ester], the pIC50 was 5.00 to 6.00 on JAK3, 7.00 to 8.00 at JAK1 and 6.00 to 7.00 on JAK2.
On to `CN(c1ncnc2[nH]ccc12)C1CCC2(CC1)CCN(C(=O)C1CC1)CC2` [Compound 99, Cyclopropyl-{9-[methyl-(7H-pyrrolo[2,3-d]pyrimidin-4-yl)-amino]-3-aza-spiro[5.5]undec-3-yl}-methanone], for which the figures for the pIC50 at JAK3, at JAK1 and at JAK2 were 5.00 to 6.00, 7.00 to 8.00 and 6.00 to 7.00, respectively.
For `CCCC(=O)N1CCC2(CCC(N(C)c3ncnc4[nH]ccc34)CC2)CC1` [Compound 100, 1-{9-[Methyl-(7H-pyrrolo[2,3-d]pyrimidin-4-yl)-amino]-3-aza-spiro[5.5]undec-3-yl}-butan-1-one] the same measures were 5.00 to 6.00, 6.00 to 7.00 and 6.00 to 7.00.
For `CN(c1ncnc2[nH]ccc12)C1CCC2(CC1)CCN(C(=O)c1cccc(OC(F)(F)F)c1)CC2` [Compound 101, {9-[Methyl-(7H-pyrrolo[2,3-d]pyrimidin-4-yl)-amino]-3-aza-spiro[5.5]undec-3-yl}-(3-trifluoromethoxy-phenyl)-methanone], the pIC50 is 5.00 to 6.00 at JAK3, 6.00 to 7.00 at JAK1 and 6.00 to 7.00 at JAK2.
With `CN(c1ncnc2[nH]ccc12)C1CCC2(CC1)CCN(C(=O)c1cccc(C#N)c1)CC2` [Compound 102, 3-{9-[Methyl-(7H-pyrrolo[2,3-d]pyrimidin-4-yl)-amino]-3-aza-spiro[5.5]undecane-3-carbonyl}-benzonitrile], the pIC50 on JAK3, on JAK1 and on JAK2 was 6.00 to 7.00 throughout.
In the case of `CN(c1ncnc2[nH]ccc12)C1CCC2(CC1)CCN(S(=O)(=O)CC(F)(F)F)CC2` [Compound 103, Methyl-(7H-pyrrolo[2,3-d]pyrimidin-4-yl)-[3-(2,2,2-trifluoro-ethanesulfonyl)-3-aza-spiro[5.5]undec-9-yl]-amine], the pIC50 at JAK3 was 6.00 to 7.00; at JAK1 it was 7.00 to 8.00; at JAK2, 6.00 to 7.00.
`CN(c1ncnc2[nH]ccc12)C1CCC2(CC1)CCN(C(=O)CC#N)CC2` [Compound 104, 3-{9-[Methyl-(7H-pyrrolo[2,3-d]pyrimidin-4-yl)-amino]-3-aza-spiro[5.5]undec-3-yl}-3-oxo-propionitrile]: the pIC50 at JAK3, at JAK1 and on JAK2 was 5.00 to 6.00 each time.
